Results published in patent US8809368B2, “Compounds affecting gap junction activity” (Kansas State University Research Foundation, priority 2006, dated 2014).
Entries after “also recorded” stand apart in the source; their conditions may differ.

Key:
MDA-MB-231 = assay: Gap junction intercellular communication, MDA-MB-231 cells; type: cell-based, human; conditions: Table 1
R28 cells = assay: Apoptosis assay, Annexin V-FITC/PI flow cytometry, R28 cells; type: cell-based, rat
Text: (A) Representative flow cytometer images of R28 cells with different treatments of PQ1 and/or CoCl2. The y-axis quantifies the number of cells stained with propidium iodine and the x-axis quantifies number of cells stained with Annexin V-FITC. (B,C) Histogram of % apoptotic cells after treatment with CoCl2 and PQ1. The percentage of apoptotic cells represents cells that are Annexin V-FITC positive and both propidium iodide and Annexin V-FITC positive after different time periods.
Apoptosis assay. Approximately 70% confluent R28Cells in 25 cm2 flasks were treated with PQ1 at 10 μM for 40 min followed by treatment with 500 μM CoCl2 for different time periods to induce apoptosis. After this, cells were harvested and stained with Annexin V-FITC and propidium iodide (PI) according to the manufacturer's protocol (BioVision # K101-100). Annexin V-FITC/PI binding was analyzed by flow cytometry using a BD FACSCalibur system and data was analyzed using the CellQuest software.
The later phase of apoptosis is assessed by measuring the DNA labeling with the PI, an indicator of the cell membrane permeabilization.

Cx43 = assay: Western blot of Cx43 and phosphoCx43-Ser368 in R28 cells; type: cell-based, rat; conditions: PQ1, CoCl2 or a combination of both
Description: (§1) (A) About 70% confluent retinal R28 cells were treated with 100, 200 and 500 μM CoCl2 for 24 h with or without the pre-treatment of PQ1 (10 μM, 40 min) in a cell culture chamber (5% CO2, room air, 37° C.). Caspase-3 activation was determined by Western blotting in whole cell homogenates (WCH). (B) HIF1α stabilization was measured in the nuclear extracts (NE) after treatment with 500 μM CoCl2 at different time intervals with or without the pretreatment of PQ1. […] Levels of Cx43 and phosphoCx43-Ser368 are measured in WCH. β-Actin is used as a loading control.
Western blot. Western blotting was performed as described previously. Anti-Cx43 was purchased from Fred Hutchinson cancer research center (# Cx43NT1), anti-HIF1a was purchased from Novus Biologicals (# NB100-105), and anti-caspase-3 (# 9661), phosphor-Cx43 (Ser368) (#3511S) were purchased from Cell Signaling Technology and anti-b-actin was purchased from Sigma (# A5441).
Next, it was determined whether PQ1 inhibition of gap junctions could prevent retinal neurosensory R28 cells from apoptosis using a chemical (CoCl2)-induced ischemia system as our model. […] CoCl2 at 500 μM caused stabilization of HIF1a in the nuclear extracts and this stabilization started as early as three hours after treatment (FIG. 20B). This confirmed induction of hypoxia. […]

HIF1α = assay: CoCl2 chemical hypoxia in R28 cells, HIF1α stabilization in nuclear extracts; type: cell-based, rat; conditions: PQ1 alone, up to 24 h
Description: as §1
Approximately 70% confluent retinal R28 cells were pre-incubated with PQ1 (10 μM, 40 min), followed by CoCl2 treatments at 100, 200 and 500 μM for different time periods in a cell culture chamber (5% CO2, room air, 37° C.). Hypoxia induction was confirmed by testing the hypoxia-inducible factor 1-α (HIF1α) protein expression levels in nuclear extracts by Western blotting.
Nuclear extracts. […] The eluted nuclear proteins in the supernatant were collected and HIF1a protein levels were measured by Western blotting. […]

SW620 colon cancer cells = assay: Colony growth of SW620 colon cancer cells; type: cell-based
Description: However, PQ3 has an opposite effect on mammary cancer cell lines. […] A summary of PQ-mediated GJIC activity and colony growth in breast and colon cancer cells is presented in Tables 1, 2, and 3, as well as FIGS. 10-13. In FIG. 10, SW620 cells were dosed for 24 hours with PQ1 at 100, 200, 300, and 500 nM. The gap junction activity was measured as a percent of control, as previously described. It was seen that all concentrations on PQ1 increased the gap junction activity in SW620 colon cancer cells as compared to the control. In FIG. 11, the effect of PQ1 on the expression of PKCγ was studied at concentrations of 100, 200, 300 and 500 nM PQ1 for 24 hours. It is seen in FIG. 11 that PQ1 has no effect on the expression of PKCγ at the levels tested. In FIGS. 12 and 13, the effect of PQ1 on the colony growth of SW620 colon cancer cells was measured with 1-100 nM PQ1 (FIG. 12) and 10 uM PQ1 (FIG. 13).
Colony Growth Assay: T47D human breast cancer cells were treated with PQ1. Base agar plates were prepared containing 0.8% agar and 0.4% agar in Ham's F12. Cells (5×10^4 cells/33 mm2 well) were suspended in 100 μl of Ham's F12 with 0.4% agar and plated. These plates were maintained at 37° C. for 7 days and examined for the presence of colonies. Individual colonies of 40 um or greater were examined.

In the case of `COc1cc(N)c2nccc(C)c2c1Oc1cccc(C(F)(F)F)c1` [PQ3, 8-Amino-6-methoxy-4-methyl-5-(3-trifluoromethylphenyloxy)quinoline], the “effect on gap junction intercellular communication” value (MDA-MB-231) is reported as “No effect”.

In the case of `COc1cc(NCCCN)c2nccc(C)c2c1Oc1cccc(C(F)(F)F)c1.O=C(O)CCC(=O)O` [PQ1, 6-Methoxy-8-[(3-aminopropyl)amino]-4-methyl-5-(3-trifluoromethylphenyloxy) quinoline succinic acid], the “protection from CoCl2-induced apoptosis” value (R28 cells; 10 μM PQ1 40 min pre-treatment, then CoCl2 500 μM) is reported as “protected the cells significantly”, the “damage to the cells” value (R28 cells; 10 μM PQ1 only, 36 h) is reported as “did not cause any damage” and the “Cx43 gap junction protein levels” value (Cx43) is reported as “did not cause any change”. For the same compound, the “phosphorylation of Cx43 at residue ser368” value (Cx43) was “did not cause any change”, the HIF1α stabilization (HIF1α) was “did not cause activation or stabilization; also recorded: did not have any effect” and the colony growth (SW620 colon cancer cells; 10 uM) was “completely inhibits”. For the same compound, the colony growth (SW620 colon cancer cells; 1-100 nM) was “no effect”.
